Experimental findings from paper PMC5762309 (Oncotarget, 2017) are described below.

What all share (assay type): cell-based
Holding throughout (conditions): Mus musculus, 72 hours, CellTiter-Glo
In general terms: ATP-based viability assays read luminescence as a measure of living cells.

In experiment [1] the test system is BaF3. Nature of the experiment: Anti-proliferation assay, parental BaF3 cells.
Description: The KIT mutant isogenic BaF3 cells lines and Colo320DM cells were cultured in RPMI 1640 media (Corning, USA) with 10% fetal bovine serum (FBS) and supplemented with 2% L-glutamine 1% penicillin/streptomycin, the BaF3 cell line was cultured in RPMI 1640 media (Corning, USA) with 1% IL-3, 10% fetal bovine serum (FBS) and supplemented with 2% L-glutamine 1% penicillin/streptomycin. All cell lines were maintained in culture media at 37°C with 5% CO2.
Experiment [2] concerns BaF3-tel-KIT-L576P. Nature of the experiment: Anti-proliferation assay, transformed BaF3 cells. The source says: (§1) Retroviral constructs for BaF3-KIT mutants were made based on the pMSCVpuro (Clontech) backbone. For TEL-KIT vector, the first 1 kb of human TEL gene with an artificial myristoylation sequence ([…]) was cloned into the pMSCVpuro retroviral vector, followed by a 3xFLAG tag sequence. Then, the kinase domain coding sequence of KIT was inserted in-frame between TEL and 3xFLAG sequences. For full-length expression vectors, the coding sequences of KIT variants were directly cloned in pMSCVpuro vector with a 3xFLAG tag at the C-terminal end. All mutagenesis was performed using the QuikChange Site-Directed Mutagenesis Kit (Stratagene) following the manufacturer’s instructions. Retrovirus was packaged in HEK293T cells by transfecting KIT-containing MSCV vectors together with two helper plasmids. Virus supernatants were harvested 48 h after transfection and filtered before infection. Then BaF3 cells were infected with harvested virus supernatants using spinoculation protocol, and stable cell lines were obtained by puromycin selection for 48 h. The IL-3 concentrations in the culture medium were gradually withdrawn until cells were able to grow in the absence of IL-3.
(§2) Cells were grown in 96-well culture plates (2500/well). The compounds of various concentrations were added into the plates. Cell proliferation was determined after treatment with compounds for 72 hours. Cell viability was measured using the CellTiter–Glo assay (Promega, USA), according to the manufacturer’s instructions, and luminescence was measured in a multi-label reader (Envision, PerkinElmer, USA). Data were normalized to control groups (DMSO) and represented by the mean of three independent measurements with standard error <20%. GI50 values were calculated using Prism 5.0 (GraphPad Software, San Diego, CA).

The test system of experiment [3] is BaF3-tel-KIT. Nature of the experiment: Anti-proliferation assay, transformed BaF3 cells.
From the text: as §1, §2

Experiment [4] deals with BaF3-tel-KIT-V559D-V654A. Briefly: Anti-proliferation assay, transformed BaF3 cells.
From the text: as §1, §2

Experiment [5] relates to BaF3-tel-KIT-D816V. Briefly: Anti-proliferation assay, transformed BaF3 cells.
From the text: as §1, §2

Experiment [6] has as its system BaF3-tel-KIT-V654A. Nature of the experiment: Anti-proliferation assay, transformed BaF3 cells.
From the text: as §1, §2

The subject of experiment [7] is BaF3-tel-KIT-V559D. Nature of the experiment: Anti-proliferation assay, transformed BaF3 cells.
From the text: as §1, §2

Experiment [8] concerns BaF3-tel-KIT-N822K. Nature of the experiment: Anti-proliferation assay, transformed BaF3 cells.
From the text: as §1, §2

The subject of experiment [9] is BaF3-tel-KIT-T670I-V559D. Briefly: Anti-proliferation assay, transformed BaF3 cells.
From the text: as §1, §2

The test system of experiment [10] is BaF3-tel-KIT-T670I. Nature of the experiment: Anti-proliferation assay, transformed BaF3 cells.
From the text: as §1, §2

In experiment [11] the test system is BaF3-tel-KIT-A829P. Briefly: Anti-proliferation assay, transformed BaF3 cells.
From the text: as §1, §2

The structures appear in SMILES notation.

On to `CCN(CC)CCNC(=O)c1c(C)[nH]c(/C=C2\C(=O)Nc3ccc(F)cc32)c1C` [Sunitinib, reference compound], for which the GI50 (usually the concentration at which growth is held to half of that of the control) in experiment [1] was determined as 1300 nM; in [2] it was 3 nM; in [3], 60 nM; in experiment [4], 6 nM; in experiment [5] it was 420 nM; in experiment [6], 2 nM. For the same compound, the GI50 in experiment [7] was less than 0.3 nM; in experiment [8], 120 nM; in experiment [9], 7 nM; in [10], 1 nM; in [11] it was 130 nM.
